Experimental data: patent US20230287510A1, “COMPOSITIONS, PANELS, AND METHODS FOR CHARACTERIZING CHRONIC LYMPHOCYTIC LEUKEMIA” (The Broad Institute, Inc., priority 2020, published 2023)
*1 amine or outer side, *2 acyl side, *3 side chain or, on linkers, in order; H or OH if unused. Where a SMILES comes first, the peptide text is derived from it. Bridges are numbered along the chain shown (N, C = ends). Roman numbers before positions name the chains, in order. [ ]: non-standard residue; d: D form. Actinocin(9to1) = Cc1c2oc3c(C)ccc(C(=O)[*:1])c3nc-2c(C(=O)[*:2])c(N)c1=O; NMeV = CN[C@H](C(=O)O)C(C)C; Sar = CNCC(=O)O

Tested on: chronic lymphocytic leukemia (CLL) samples classified by expression subtype (Ec-i, EC-m1, EC-m2, EC-m3, EC-m4, EC-o, EC-u1, EC-u2)
Experiment: Ex-vivo drug sensitivity (percent viability) of CLL samples compared between expression subtypes (ECs); as to Mean viability in the EC: test concentration or dose not given here; as to Mean viability in the other ECs: test concentration or dose not given here
Format: cell-based
Description: An analysis was completed to determine whether the expression clusters (ECs) can be used to predict the resistance and sensitivity of different chronic lymphocytic leukemias to various drugs. […] The expression subtypes were then used with the drug sensitivity data to compare the percent […] of samples in each expression cluster to the percent viability of samples in all other expression clusters.

## CO[C@H]1C[C@@H]2CC[C@@H](C)[C@@](O)(O2)C(=O)C(=O)N2CCCC[C@H]2C(=O)O[C@H]([C@H](C)C[C@@H]2CC[C@@H](OCCO)[C@H](OC)C2)CC(=O)[C@H](C)/C=C(\C)[C@@H](O)[C@@H](OC)C(=O)[C@H](C)C[C@H](C)/C=C/C=C/C=C/1C [everolimus]
All ECs other than EC-u1
  Mean viability in the other ECs: 0.95
Expression cluster EC-u1
  Drug response associated with the EC: Resistant
  Mean viability in the EC: 0.99

## C=C(C)[C@H]1Cc2c(ccc3c2O[C@@H]2COc4cc(OC)c(OC)cc4[C@@H]2C3=O)O1 [rotenone]
All ECs other than EC-i
  Mean viability in the other ECs: 0.77
All ECs other than EC-m4
  Mean viability in the other ECs: 0.77
All ECs other than EC-u2
  Mean viability in the other ECs: 0.74
Expression cluster EC-i
  Drug response associated with the EC: Sensitive
  Mean viability in the EC: 0.63
Expression cluster EC-m4
  Drug response associated with the EC: Sensitive
  Mean viability in the EC: 0.67
Expression cluster EC-u2
  Drug response associated with the EC: Resistant
  Mean viability in the EC: 0.92

## NC(=O)Nc1cc(-c2cccc(F)c2)sc1C(=O)N[C@H]1CCCNC1 [AZD7762]
All ECs other than EC-m3
  Mean viability in the other ECs: 0.82
All ECs other than EC-m4
  Mean viability in the other ECs: 0.80
All ECs other than EC-u1
  Mean viability in the other ECs: 0.88
All ECs other than EC-u2
  Mean viability in the other ECs: 0.85
Expression cluster EC-m3
  Drug response associated with the EC: Resistant
  Mean viability in the EC: 0.95
Expression cluster EC-m4
  Drug response associated with the EC: Resistant
  Mean viability in the EC: 0.98
Expression cluster EC-u1
  Drug response associated with the EC: Sensitive
  Mean viability in the EC: 0.74
Expression cluster EC-u2
  Drug response associated with the EC: Sensitive
  Mean viability in the EC: 0.51

## C[C@@H]1CN(CC(=O)Nc2ccc3c(c2)Cc2cccc(-c4cc(=O)cc(N5CCOCC5)o4)c2S3)C[C@H](C)O1 [KU-60019]
All ECs other than EC-m3
  Mean viability in the other ECs: 0.97
All ECs other than EC-u2
  Mean viability in the other ECs: 0.97
Expression cluster EC-m3
  Drug response associated with the EC: Resistant
  Mean viability in the EC: 1.00
Expression cluster EC-u2
  Drug response associated with the EC: Sensitive
  Mean viability in the EC: 0.90

## CC[C@H]1CN2CCc3cc(OC)c(OC)cc3[C@@H]2C[C@@H]1C[C@H]1NCCc2cc(O)c(OC)cc21 [cephaeline]
All ECs other than EC-u2
  Mean viability in the other ECs: 0.82
Expression cluster EC-u2
  Mean viability in the EC: 0.72

## COCCn1c2c([n+](Cc3cnccn3)c1C)C(=O)c1ccccc1C2=O [YM155]
All ECs other than EC-u1
  Mean viability in the other ECs: 0.64
Expression cluster EC-u1
  Drug response associated with the EC: Sensitive
  Mean viability in the EC: 0.53

## C/C1=C\[C@@H](C)C/C=C/[C@H]2[C@@H]3O[C@]3(C)[C@@H](C)[C@H]3[C@H](Cc4c[nH]c5ccccc45)NC(=O)[C@]32C(=O)/C=C/C(=O)[C@@H]1O [chaetoglobosin A]
All ECs other than EC-m3
  Mean viability in the other ECs: 1.07
Expression cluster EC-m3
  Drug response associated with the EC: Sensitive
  Mean viability in the EC: 0.98

## COc1cc(N2CCC(N3CCN(C)CC3)CC2)ccc1Nc1ncc(Cl)c(Nc2ccccc2S(=O)(=O)C(C)C)n1 [TAE684]
All ECs other than EC-m1
  Mean viability in the other ECs: 1.01
All ECs other than EC-m4
  Mean viability in the other ECs: 1.01
All ECs other than EC-u1
  Mean viability in the other ECs: 1.03
Expression cluster EC-m1
  Drug response associated with the EC: Resistant
  Mean viability in the EC: 1.07
Expression cluster EC-m4
  Drug response associated with the EC: Resistant
  Mean viability in the EC: 1.04
Expression cluster EC-u1
  Drug response associated with the EC: Sensitive
  Mean viability in the EC: 0.98

## NC1(c2ccc(-c3nc4ccn5c(=O)[nH]nc5c4cc3-c3ccccc3)cc2)CCC1 [MK-2206]
All ECs other than EC-m1
  Mean viability in the other ECs: 1.00
All ECs other than EC-m4
  Mean viability in the other ECs: 1.00
All ECs other than EC-u1
  Mean viability in the other ECs: 1.02
Expression cluster EC-m1
  Drug response associated with the EC: Resistant
  Mean viability in the EC: 1.07
Expression cluster EC-m4
  Drug response associated with the EC: Resistant
  Mean viability in the EC: 1.04
Expression cluster EC-u1
  Drug response associated with the EC: Sensitive
  Mean viability in the EC: 0.98

## CC1(C)CCC(c2ccc(Cl)cc2)=C(CN2CCN(c3ccc(C(=O)NS(=O)(=O)c4ccc(N[C@H](CCN5CCOCC5)CSc5ccccc5)c(S(=O)(=O)C(F)(F)F)c4)cc3)CC2)C1 [navitoclax]
All ECs other than EC-u1
  Mean viability in the other ECs: 0.82
Expression cluster EC-u1
  Drug response associated with the EC: Resistant
  Mean viability in the EC: 0.89

## CN1CCN(CCOc2cc(OC3CCOCC3)c3c(Nc4c(Cl)ccc5c4OCO5)ncnc3c2)CC1 [saracatinib]
All ECs other than EC-i
  Mean viability in the other ECs: 1.07
Expression cluster EC-i
  Mean viability in the EC: 1.13

## fludarabine
All ECs other than EC-m3
  Mean viability in the other ECs: 0.93
Expression cluster EC-m3
  Drug response associated with the EC: Sensitive
  Mean viability in the EC: 0.82

## O=C(CCCCCCC(=O)Nc1ccccc1)NO [vorinostat]
Expression cluster EC-m3
  Drug response associated with the EC: Sensitive

## CC(C)(C)c1ccc(S(=O)(=O)/C=C/C#N)cc1 [BAY 11-7085]
Expression cluster EC-i
  Drug response associated with the EC: Resistant
Expression cluster EC-u1
  Drug response associated with the EC: Sensitive

## dasatinib
All ECs other than EC-m1
  Mean viability in the other ECs: 0.73
All ECs other than EC-m3
  Mean viability in the other ECs: 0.72
All ECs other than EC-m4
  Mean viability in the other ECs: 0.70
All ECs other than EC-u1
  Mean viability in the other ECs: 0.79
All ECs other than EC-u2
  Mean viability in the other ECs: 0.75
Expression cluster EC-m1
  Drug response associated with the EC: Resistant
  Mean viability in the EC: 0.90
Expression cluster EC-m3
  Drug response associated with the EC: Resistant
  Mean viability in the EC: 0.87
Expression cluster EC-m4
  Drug response associated with the EC: Resistant
  Mean viability in the EC: 0.89
Expression cluster EC-u1
  Drug response associated with the EC: Sensitive
  Mean viability in the EC: 0.64
Expression cluster EC-u2
  Drug response associated with the EC: Sensitive
  Mean viability in the EC: 0.46

## COc1cc2nc(-c3cc(F)ccc3O)nc(N[C@@H]3CNC[C@H]3C(C)(C)O)c2cc1OC [CCT241533]
All ECs other than EC-m1
  Mean viability in the other ECs: 1.06
All ECs other than EC-m3
  Mean viability in the other ECs: 1.06
Expression cluster EC-m1
  Drug response associated with the EC: Resistant
  Mean viability in the EC: 1.11
Expression cluster EC-m3
  Drug response associated with the EC: Resistant
  Mean viability in the EC: 1.09

## O=C(Nc1cccc(Nc2ncc(Br)c(NCCc3cnc[nH]3)n2)c1)N1CCCC1 [BX912]
All ECs other than EC-u1
  Mean viability in the other ECs: 1.07
Expression cluster EC-u1
  Drug response associated with the EC: Sensitive
  Mean viability in the EC: 1.05

## O=C(Cc1ccc(-c2ccc(OCCN3CCOCC3)cc2)cn1)NCc1ccccc1 [KX2-391]
All ECs other than EC-u1
  Mean viability in the other ECs: 0.91
Expression cluster EC-u1
  Drug response associated with the EC: Sensitive
  Mean viability in the EC: 0.86

## Cc1c2oc3c(C)ccc(C(=O)N[C@@H]4C(=O)N[C@H](C(C)C)C(=O)N5CCC[C@H]5C(=O)N(C)CC(=O)N(C)[C@@H](C(C)C)C(=O)O[C@@H]4C)c3nc-2c(C(=O)N[C@@H]2C(=O)N[C@H](C(C)C)C(=O)N3CCC[C@H]3C(=O)N(C)CC(=O)N(C)[C@@H](C(C)C)C(=O)O[C@@H]2C)c(N)c1=O [actinomycin D] (I: T[dV]P[Sar][NMeV] / II: T[dV]P[Sar][NMeV]; ester I:1-I:C, II:1-II:C; linker I:N-II:N via Actinocin(9to1))
All ECs other than EC-u1
  Mean viability in the other ECs: 0.27
Expression cluster EC-u1
  Drug response associated with the EC: Resistant
  Mean viability in the EC: 0.37

## CC1(C)CCC(CN2CCN(c3ccc(C(=O)NS(=O)(=O)c4ccc(NCC5CCOCC5)c([N+](=O)[O-])c4)c(Oc4cnc5[nH]ccc5c4)c3)CC2)=C(c2ccc(Cl)cc2)C1 [venetoclax]
All ECs other than EC-u1
  Mean viability in the other ECs: 0.45
Expression cluster EC-u1
  Drug response associated with the EC: Resistant
  Mean viability in the EC: 0.54

## C=CC(=O)Nc1cccc(Nc2nc(Nc3ccc(OCCOC)cc3)ncc2F)c1 [spebrutinib]
All ECs other than EC-m4
  Mean viability in the other ECs: 0.95
All ECs other than EC-u1
  Mean viability in the other ECs: 0.98
All ECs other than EC-u2
  Mean viability in the other ECs: 0.96
Expression cluster EC-m4
  Mean viability in the EC: 1.01
Expression cluster EC-u1
  Mean viability in the EC: 0.92
Expression cluster EC-u2
  Mean viability in the EC: 0.88

## C/C=C(/C)C(=O)O[C@H]1C(C)=C2[C@H]([C@@H]1OC(=O)CCCCCCC)[C@@](C)(OC(C)=O)C[C@H](OC(=O)CCC)[C@@]1(O)[C@H]2OC(=O)[C@@]1(C)O [thapsigargin]
Expression cluster EC-i
  Drug response associated with the EC: Sensitive
Expression cluster EC-u2
  Drug response associated with the EC: Resistant
